# Source: publication PMC8733953, “Identifying specific matrix metalloproteinase-2-inhibiting peptides through phage display-based subtractive screening” (Turkish Journal of Biology, 2021)
# Entries after “also recorded” stand apart in the source; their conditions may differ.
# Tested on: HUVEC
# Experiment: Wound-healing (cell migration) assay
# Assay type: cell-based, human
# Conditions: peptide 100 μM or EDTA 2 mM, 24 h
# Method: For cell culture study, human umbilical vein endothelial cells (HUVECs; C2519A) were purchased from Lonza, Basel, Switzerland. The cells were cultured in endothelial complete media, which is composed of endothelial basal media EBM-2 (CC-3156, Lonza) supplemented with 1% penicillin (10,000 units/mL)- streptomycin (10,000 units/mL) (Gibco, Cat No 15140122) and endothelial cell growth medium 2 (EGM-2) SingleQuots (CC-4176, Lonza, Switzerland) containing growth factors (insulin-like growth factor, human fibroblast growth factor, human epidermal growth factor, and vascular endothelial growth factor), and supplements (ascorbic acid, heparin, hydrocortisone, and fetal bovine serum). Cell passage was carried out three times per week, considering the cell doubling time (Erdag et al., 2011). Cell migration was investigated using a wound-healing assay. HUVEC cells were detached from the cell culture flask using 0.25% trypsin-EDTA and harvested when cell confluence was approximately 70%–80%. After confirming that cell viability was at least 90%, the cells were suspended in complete medium to a density of 1 × 10^5 cells/mL. […] Wound areas were measured using the Gen5 software, and the relative wound area per time-point was calculated based on the wound at 0 h.
smiles,measurement,setting,value
O=C(O)CN(CCN(CC(=O)O)CC(=O)O)CC(=O)O [EDTA],wound area still uncovered (wound opening area),"HUVEC monolayer scratched, relative to wound at 0 h, three independent experiments",82%
same,effect on wound healing (in words),HUVEC,no significant wound healing was observed; also recorded: twice the inhibition effect
